Results from patent publication US20250034212A1, “PEPTIDE” (PEPTIDREAM INC., priority 2021, published 2025).
Starred links: 1 amine or outer side, 2 acyl side, 3 side chain; linkers in the order of their positions; H or OH if unused. Positions of bridges follow the written chain, without caps; N, C: chain ends. Non-standard residues stand in square brackets, D forms with d. Residues, ends and D or L forms follow the SMILES beside them. Groups on a side chain read outwards from the residue. *: point of attachment. Piperazinyl(4-CH2COOH) = O=C(O)CN1CCN(*)CC1; 1Nal = N[C@@H](Cc1cccc2ccccc12)C(=O)O; Gly(NCH2CH2Ph) = O=C(O)CNCCc1ccccc1; 4Pal = N[C@@H](Cc1ccncc1)C(=O)O; CO = O=C([*:1])[*:2]

Key:
[1] = biological target: T1, recombinant human TGF-β1 (Homo sapiens, UniProt P01137); assay: SPR intermolecular interaction test, TGF-β1 immobilized on CM3 sensor chip (Biacore T200); format: binding; settings: for Kd: Single Cycle Kinetics, human TGF-β1
T1 construct: purchased R&D systems
T1 sequence (P01137 279-390 limits assumed): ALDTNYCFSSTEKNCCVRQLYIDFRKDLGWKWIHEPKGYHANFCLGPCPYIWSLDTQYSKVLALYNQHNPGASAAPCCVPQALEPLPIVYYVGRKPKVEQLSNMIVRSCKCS
Method: In this Example, (1) the activity of binding to TGF-β for various peptides consisting of the amino acid sequences set forth in SEQ ID NOs: 2-33 synthesized in Examples 1 to 5 and 7 was evaluated. (2) The activity and selectivity of binding of the peptide consisting of the amino acid sequence set forth in SEQ ID NO: 13 synthesized in Example 2 against two isoforms of TGF-β (TGF-β1 and β2) were checked. For this purpose, the intermolecular interaction of each peptide against TGF-β was tested by surface plasmon resonance (SPR) in the method described below. Specific test methods are described below.
A CM3 sensor chip (Global Life Science Technologies Japan Co., Ltd.) was inserted into a BiacoreT200 (Global Life Science Technologies Japan Co., Ltd.). Three priming runs were performed using running buffer: HBS-EP+ (Global Life Science Technologies Japan Co., Ltd.). The system was then equilibrated at a flow rate of 30 μL/min.
Subsequently, 50 μL of 60 mM EDC solution (Global Life Science Technologies Japan Co., Ltd.) and 50 μL of 650 mM NHS solution (Global Life Science Technologies Japan Co., Ltd.) were mixed. Next, the reaction was carried out at a flow rate of 10 μL/min for 420 seconds. Then, 150 μL of 0.2 μM TGF-β solution diluted in 10 mM acetic acid solution (pH 5.0) was prepared and reacted at a flow rate of 10 μL/min for 420 seconds to immobilize TGF-β on the CM3 sensor chip. TGF-β was human-derived TGF-β1 or β2 (recombinant human TGF-β1, 2) and was obtained from R&D systems. After immobilization, capping was performed by reacting with 1.0 M ethanolamine aqueous solution (Global Life Science Technologies Japan Co., Ltd.) at a flow rate of […] for 420 seconds.
A liquid prepared by dissolving each peptide at 10 mM in DMSO solution was diluted with running buffer to prepare a peptide-dissolved solution at a final concentration of 10 μM. Subsequently, 50 nM, 25 nM, 12.5 nM, 5 nM, and 2.5 nM peptide solutions were prepared. Using the above samples, the kinetics of each peptide against TGF-β was obtained by SPR measurement.
The kinetics evaluation model was Single Cycle Kinetics, and curve fitting was performed using Biacore T200 Evaluation Software Version 3.0 (Global Life Science Technologies Japan Co., Ltd.). The binding of various peptides to TGF-β was evaluated by performing least-squares curve fitting on the obtained sensorgram to calculate the KD value.

[2] = biological target: T1, recombinant human TGF-β1; assay: SBE reporter assay in SBE reporter-HEK293 cells, TGF-β1 stimulation; format: cell-based; settings: for inhibition at 75 pM: peptide 0.075 nM; for inhibition at 75 pM / inhibition at 0.00075 µM / inhibition at 0.0075 µM / inhibition at 0.075 µM: TGF-β1 0.13 nM, 18 hours; for inhibition at 0.00075 µM: peptide 0.75 nM; for inhibition at 0.0075 µM: peptide 7.5 nM; for inhibition at 0.075 µM: peptide 75.0 nM
From the text: The inhibitory activity of the peptide can be calculated without limitation while the maximum signal induced by TGF-β is set to 0% inhibition and no stimulation is set to 100% inhibition. When the peptide is used at an appropriate concentration, for example, at the optimal concentration, the inhibitory activity is not limited but the inhibition is 5% or more, 10% or more, 20% or more, 30% or more, 40% or more, 50% or more, 60% or more, 70% or more, 80% or more, or 90% or more.
In this Example, the TGF-β1 inhibitory activity of the peptide of the present invention consisting of the amino acid sequence set forth in SEQ ID NOs: 2-33 synthesized in Examples 1 to 5 and 7 was evaluated by an SBE reporter assay using the SBE reporter-HEK293 cell system (BP Bioscience) as follows.
SBE reporter-HEK293 cells were cultured in E-MEM (Wako) containing 10% FBS (Sigma). The cells were detached using Accutase (Innovative Cell Technologies), suspended in E-MEM containing 0.5% FBS, seeded onto a 96-well plate(s) at a concentration of 45,000 cells per well, and cultured overnight. The next day, the peptide was added and allowed to stand for 20 min, and recombinant human TGF-β1 (R&D systems) or recombinant human TGF-β2 (R&D systems) was then added at 0.13 nM and cultured for 18 hours.
Thereafter, luciferase assay ONE-Glo reagent was added to each well and the plate was shaken for 5 min. A SpectraMax Paradigm multimode microplate reader (Molecular Devices) was then used for signal detection. The obtained signals were analyzed by GraphPad Prism. The inhibitory activity of the peptide was calculated while the maximum signal induced by TGF-β was set to 0% inhibition and no stimulation was set to 100% inhibition.

Structure (SMILES)	ability of binding to TGF-β1 (in words) [1]	TGF-β1 antagonist / inhibitory activity (in words) ([2]; SBE reporter assay, FIG. 1 and Tables 2 and 3)	inhibition at 75 pM [2] [%]	inhibition at 0.00075 µM [2] [%]	inhibition at 0.0075 µM [2] [%]	inhibition at 0.075 µM [2] [%]	Kd [1] [nM]
CC(C)[C@@H]1NC(=O)CN(CCc2ccccc2)C(=O)[C@H](CC(=O)O)NC(=O)[C@H](CC(=O)O)NC(=O)[C@H](Cc2ccc(O)cc2)NC(=O)[C@H](C(C)C)NC(=O)[C@H](CC(N)=O)NC(=O)[C@H](C(C)C)NC(=O)[C@H](C(C)C)NC(=O)[C@H](Cc2cccc3ccccc23)NC(=O)[C@H](Cc2ccccc2)NC(=O)CSC[C@@H](C(=O)NCC(N)=O)NC(=O)[C@H](C(C)C)NC(=O)[C@H](Cc2c[nH]cn2)NC(=O)[C@H](Cc2ccc(O)cc2)NC(=O)[C@H](Cc2cccc3ccccc23)NC1=O [TGFb1_001, F-Nal1-V-V-N-V-Y-D-D-PeG-V-Nal1-Y-H-V-C-G] ({CH2CO}-F[1Nal]VVNVYDD[Gly(NCH2CH2Ph)]V[1Nal]YHVCG-NH2; thioether N-16)	confirmed to have TGF-β binding activity	TGF-β antagonist activity	19.7	69.7	98.1	101	
CC(C)[C@@H]1NC(=O)CN(CCc2ccccc2)C(=O)[C@H](CC(=O)O)NC(=O)[C@H](CC(=O)O)NC(=O)[C@H](Cc2ccncc2)NC(=O)[C@H](C(C)C)NC(=O)[C@H](CC(N)=O)NC(=O)[C@H](C(C)C)NC(=O)[C@H](C(C)C)NC(=O)[C@H](Cc2cccc3ccccc23)NC(=O)[C@H](Cc2ccccc2)NC(=O)CSC[C@@H](C(=O)NCC(N)=O)NC(=O)[C@H](C(C)C)NC(=O)[C@H](Cc2c[nH]cn2)NC(=O)[C@H](Cc2ccc(O)cc2)NC(=O)[C@H](Cc2cccc3ccccc23)NC1=O [TGFb1_006] ({CH2CO}-F[1Nal]VVNV[4Pal]DD[Gly(NCH2CH2Ph)]V[1Nal]YHVCG-NH2; thioether N-16)			2.8	69.3	97.1	99.7	1.03
CC(C)[C@@H]1NC(=O)CN(CCc2ccccc2)C(=O)[C@H](CC(=O)O)NC(=O)[C@H](CC(=O)O)NC(=O)[C@H](Cc2ccncc2)NC(=O)[C@H](C(C)C)NC(=O)[C@H](CC(N)=O)NC(=O)[C@H](C(C)C)NC(=O)[C@H](C(C)C)NC(=O)[C@H](Cc2cccc3ccccc23)NC(=O)[C@H](Cc2ccccc2)NC(=O)CSC[C@@H](C(N)=O)NC(=O)[C@H](CCCCNC(=O)N2CCN(CC(=O)O)CC2)NC(=O)[C@H](Cc2c[nH]cn2)NC(=O)[C@H](Cc2ccc(O)cc2)NC(=O)[C@H](Cc2cccc3ccccc23)NC1=O [TGFb1_013] ({CH2CO}-F[1Nal]VVNV[4Pal]DD[Gly(NCH2CH2Ph)]V[1Nal]YHK([CO-Piperazinyl(4-CH2COOH)])C-NH2; thioether N-16)							0.82
